Biological target: Human recombinant cathepsin K (Homo sapiens (Human), UniProt P43235)
Test: In vitro cathepsin Ki inhibition measurements
Type: biochemical
Details: for Ki: human recombinant cathepsin K, pH 5.5, Z-Leu-Arg-AMC substrate, read-out: In vitro Ki (nM) vs Cath K; for fold improvement in in vitro potency against human cathepsin K: relative to closest prior art compound (42)
Experimental: Stock solutions of substrate or inhibitor were made up to 10 mM in 100% dimethylsulfoxide (DMSO) (Rathburns, Glasgow, U.K.) and diluted as appropriately required. In all cases the DMSO concentration in the assays was maintained at less than 1% (vol./vol.). The equilibrium inhibition constants (Ki^ss) for each compound were measured under steady-state conditions monitoring enzyme activity as a function of inhibitor concentration. The values were calculated on the assumption of pure competitive behaviour (Cornish-Bowden, A. Fundamentals of enzyme kinetics Portland Press; 1995, 93-128.). Human recombinant cathepsin K (0.25 nM final; B. Turk, Josef, Stefan Institute, Ljubljana, Slovenia), was routinely assayed in 100 mM sodium acetate; pH 5.5 containing 1 mM EDTA, 10 mM L-cysteine and 1.8 μM Z-Leu-Arg-AMC ([S]=KM).
The apparent inhibition constant (Ki) for each compound was determined on the basis that inhibition was reversible and occurred by a pure-competitive mechanism. The Ki values were calculated, from the dependence of enzyme activity as a function of inhibitor concentration, by direct regression analysis (Prism v 3.02) using Equation 2 (Cornish-Bowden, A., 1995.).
In situations where the apparent dissociation constant (Ki^app) approached the enzyme concentrations, the Ki^app values were calculated using a quadratic solution in the form described by Equation 3 (Morrison, J. F. Trends Biochem. Sci., 7, 102-105, 1982; Morrison, J. F. Biochim. Biophys. Acta. 185, 269-286, 1969; Stone, S. R. and Hofsteenge, J. Biochemistry, 25, 4622-4628, 1986).
Curves were fitted by non-linear regression analysis (Prism) using a fixed value for the enzyme concentration. Equation 4 was used to account for the substrate kinetics, where ‘Ki’ is the inhibition constant, ‘[So]’ is the initial substrate concentration and ‘KM^app’ is the apparent macroscopic binding (Michaelis) constant for the substrate (Morrison, 1982).

Sequence of Human recombinant cathepsin K (P43235 115-329): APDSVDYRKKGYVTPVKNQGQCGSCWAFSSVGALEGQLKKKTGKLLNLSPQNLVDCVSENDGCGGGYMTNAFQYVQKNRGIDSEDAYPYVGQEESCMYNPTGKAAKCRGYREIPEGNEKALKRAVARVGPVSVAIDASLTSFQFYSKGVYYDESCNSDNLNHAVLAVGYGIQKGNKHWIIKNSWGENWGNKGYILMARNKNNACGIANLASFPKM

| SMILES | Ki | fold improvement in in vitro potency against human cathepsin K |
| --- | --- | --- |
| CC(C)C[C@H](NC(=O)c1ccc(N2CCN(C)CC2)cc1)C(=O)N1C[C@@H](C)[C@H]2OCC(=O)[C@H]21 [Example 1, N—((S)-4-methyl-1-((3aS,6R,6aR)-6-methyl-3-oxodihydro-2H-furo[3,2-b]pyrrol-4(5H,6H,6aH)-yl)-1-oxopentan-2-yl)-4-(4-methylpiperazin-1-yl)benzamide] | 2.5 nM | 3.5 fold |
| C[C@@H]1CN(C(=O)[C@@H](NC(=O)c2ccc(N3CCN(C)CC3)cc2)C2CCCC2)[C@@H]2C(=O)CO[C@H]12 [Example 4, N—((S)-1-cyclopentyl-2-((3aS,6R,6aR)-6-methyl-3-oxodihydro-2H-furo[3,2-b]pyrrol-4(5H,6H,6aH)-yl)-2-oxoethyl)-4-(4-methylpiperazin-1-yl)benzamide] | 1 nM | 8.7 fold |
| CC(C)C[C@H](NC(=O)c1ccc(N2CCN(C)CC2)cc1)C(=O)N1C[C@H](C(F)F)[C@H]2OCC(=O)[C@H]21 [Example 12, N—((S)-1-((3aS,6S,6aR)-6-(difluoromethyl)-3-oxodihydro-2H-furo[3,2-b]pyrrol-4(5H,6H,6aH)-yl)-4-methyl-1-oxopentan-2-yl)-4-(4-methylpiperazin-1-yl)benzamide] | 0.8 nM | 10.9 fold |
| CC(C)C[C@H](NC(=O)c1ccc(-c2csc(N3CCN(C)CC3)n2)cc1)C(=O)N1C[C@@H](C)[C@H]2OCC(=O)[C@H]21 [Example 16, N—((S)-4-methyl-1-((3aS,6R,6aR)-6-methyl-3-oxodihydro-2H-furo[3,2-b]pyrrol-4(5H,6H,6aH)-yl)-1-oxopentan-2-yl)-4-(2-(4-methylpiperazin-1-yl)thiazol-4-yl)benzamide] | 0.7 nM | – |
| CC(C)[C@@H]1CN(C(=O)[C@@H](NC(=O)c2ccc(N3CCN(C)CC3)cc2)C(C)(C)C)[C@@H]2C(=O)CO[C@@H]21 [Example 24, N—((S)-1-((3aS,6R,6aH)-6-isopropyl-3-oxodihydro-2H-furo[3,2-b]pyrrol-4(5H,6H,6aH)-yl)-3,3-dimethyl-1-oxobutan-2-yl)-4-(4-methylpiperazin-1-yl)benzamide] | 3.2 nM | – |
| CC[C@H]1CN(C(=O)[C@@H](NC(=O)c2ccc(N3CCN(C)CC3)cc2)C(C)(C)C)[C@@H]2C(=O)CO[C@H]12 [Example 25, N—((S)-1-((3aS,6S,6aR)-6-ethyl-3-oxodihydro-2H-furo[3,2-b]pyrrol-4(5H,6H,6aH)-yl)-3,3-dimethyl-1-oxobutan-2-yl)-4-(4-methylpiperazin-1-yl)benzamide] | 0.8 nM | – |
| CC(C)[C@@H]1CN(C(=O)[C@@H](NC(=O)c2ccc(N3CCN(C)CC3)cc2)C2CCCC2)[C@@H]2C(=O)CO[C@@H]21 [Example 28, N—((S)-1-cyclopentyl-2-((3aS,6R,6aR)-6-isopropyl-3-oxodihydro-2H-furo [3,2-b]pyrrol-4(5H,6H,6aH)-yl)-2-oxoethyl)-4-(4-methylpiperazin-1-yl)benzamide] | 1.5 nM | 5.8 fold |
| CC[C@H]1CN(C(=O)[C@@H](NC(=O)c2ccc(N3CCN(C)CC3)cc2)C2CCCC2)[C@@H]2C(=O)CO[C@H]12 [Example 29, N—((S)-1-cyclopentyl-2-((3aS,6S,6aR)-6-ethyl-3-oxodihydro-2H-furo[3,2-b]pyrrol-4(5H,6H,6aH)-yl)-2-oxoethyl)-4-(4-methylpiperazin-1-yl)benzamide] | 0.4 nM | 22.9 fold |

The remaining molecules from weak to strong by Ki, led by results:

| Ki | fold improvement in in vitro potency against human cathepsin K | SMILES |
| --- | --- | --- |
| 4.4 nM | – | CC[C@@H]1CN(C(=O)[C@@H](NC(=O)c2ccc(N3CCN(C)CC3)cc2)C(C)(C)C)[C@@H]2C(=O)CO[C@H]12 [Example 23, N—((S)-1-((3aS,6R,6aR)-6-ethyl-3-oxodihydro-2H-furo[3,2-b]pyrrol-4(5H,6H,6aH)-yl)-3,3-dimethyl-1-oxobutan-2-yl)-4-(4-methylpiperazin-1-yl)benzamide] |
| 1.7 nM | 5.7 fold | CC(C)C[C@H](NC(=O)c1ccc(N2CCN(C)CC2)cc1)C(=O)N1C[C@@H](C(F)F)[C@H]2OCC(=O)[C@H]21 [Example 8, N—((S)-1-((3aS,6R,6aR)-6-(difluoromethyl)-3-oxodihydro-2H-furo[3,2-b]pyrrol-4(5H,6H,6aH)-yl)-4-methyl-1-oxopentan-2-yl)-4-(4-methylpiperazin-1-yl)benzamide] |
| 1.2 nM | 7.3 fold | CC[C@@H]1CN(C(=O)[C@@H](NC(=O)c2ccc(N3CCN(C)CC3)cc2)C2CCCC2)[C@@H]2C(=O)CO[C@H]12 [Example 27, N—((S)-1-cyclopentyl-2-((3aS,6R,6aR)-6-ethyl-3-oxodihydro-2H-furo[3,2-b]pyrrol-4(5H,6H,6aH)-yl)-2-oxoethyl)-4-(4-methylpiperazin-1-yl)benzamide] |
| 0.8 nM | – | CC(C)[C@H]1CN(C(=O)[C@@H](NC(=O)c2ccc(N3CCN(C)CC3)cc2)C(C)(C)C)[C@@H]2C(=O)CO[C@H]12 [Example 26, N—((S)-1-((3aS,6S,6aR)-6-isopropyl-3-oxodihydro-2H-furo[3,2-b]pyrrol-4 (5H,6H,6aH)-yl)-3,3-dimethyl-1-oxobutan-2-yl)-4-(4-methylpiperazin-1-yl)benzamide] |
| 0.75 nM | 11.6 fold | CC(C)C[C@H](NC(=O)c1ccc(N2CCN(C)CC2)cc1)C(=O)N1C[C@H](C)[C@H]2OCC(=O)[C@H]21 [Example 5, N—((S)-4-methyl-1-((3aS,6S,6aR)-6-methyl-3-oxodihydro-2H-furo[3,2-b]pyrrol-4(5H,6H,6aH)-yl)-1-oxopentan-2-yl)-4-(4-methylpiperazin-1-yl)benzamide] |
| 0.45 nM | 18.9 fold | CC(C)[C@H]1CN(C(=O)[C@@H](NC(=O)c2ccc(N3CCN(C)CC3)cc2)C2CCCC2)[C@@H]2C(=O)CO[C@H]12 [Example 30, N—((S)-1-cyclopentyl-2-((3aS,6S,6aR)-6-isopropyl-3-oxodihydro-2H-furo[3,2-b]pyrrol-4(5H,6H,6aH)-yl)-2-oxoethyl)-4-(4-methylpiperazin-1-yl)benzamide] |
| 0.35 nM | 24.9 fold | C[C@H]1CN(C(=O)[C@@H](NC(=O)c2ccc(N3CCN(C)CC3)cc2)C2CCCC2)[C@@H]2C(=O)CO[C@@H]21 [Example 7, N—((S)-1-cyclopentyl-2-((3aS,6S,6aR)-6-methyl-3-oxodihydro-2H-furo [3,2-b]pyrrol-4(5H,6H,6aH)-yl)-2-oxoethyl)-4-(4-methylpiperazin-1-yl)benzamide] |
